Reference: PMC5556071, “ATR inhibition facilitates targeting of leukemia dependence on convergent nucleotide biosynthetic pathways” (Nature Communications, 2017)
Values joined by “and” are separate entries in the source; they are usually repeats but may differ in a detail not shown here. Equal entries are not always repeated.

Key:
Jurkat cells = assay: Cell cycle histograms (propidium iodide flow cytometry); type: cell-based, human; conditions: dCKi 1 µM, 24 h
Description: Cell cycle histograms. Cells were plated at a density of 0.5 x 10^6 cells/mL in respective media or drug treated
media. Following 24 h incubation, cells were harvested and washed twice with PBS twice before staining with
0.5 ml of propidium iodide (Calbiochem, #P3566, 1 µg/mL) solution containing Ribonuclease A and 0.3%
Triton-X 100. The samples were protected from light before acquisition by flow cytometry. […]

asynchronous CEM cells = assay: Quantitative global proteomics (nLC-MS/MS), asynchronous cells; type: cell-based, human
Description: To investigate the molecular mechanisms underlying the metabolic consequences of ATR and dCK inhibition, global changes in protein expression were assessed in CEM cells using quantitative nano-LC tandem MS (nLC-MS/MS) (Fig. 2a). Chemical isotope coding following reductive dimethylation of peptide N-termini and lysine primary amines with differential stable isotopes (light:medium:heavy) was used to compare expression of experimental (VE-822, dCKi and VE-822 + dCKi) samples to controls (untreated, NT) by mixing equal proportions for triplex nLC-MS/MS quantitative analyses. The data set was filtered for proteins identified in all treatment groups in three independent experiments with coefficients of variation <20%. This yielded 1757 proteins with relative fold changes in treated vs. untreated cells ranging from 0.45 to 1.83. […] Protein levels of both RNR subunits, RRM1 and RRM2, as well as thymidylate synthase decreased by more than 20% following ATR inhibition (Fig. 2c). Changes in the expression of de novo enzymes observed in synchronous cells also occurred with ATR inhibition in asynchronous CEM cells (Fig. 2d and Supplementary Data 3), thereby arguing against the possibility of experimental artifacts introduced by Palbociclib-mediated cell cycle synchronization. The reduction in RRM2 levels induced by ATR inhibition was accompanied by an ~ 50% decrease in the phosphorylation of RRM2 on threonine 33 (pT33) (Fig. 2e), a phosphosite previously linked to the RRM2 stability. […]
Proteomic analyzes. CCRF-CEM cells were treated ± with a CDK4/6 inhibitor, PD-0332991 (Selleckchem) for 18 h to arrest at G1 phase. Cells were then washed twice with PBS and released in fresh media with treatment at a density of 1 x 10^6 cells/mL. Cells were collected at 12 h, washed twice with ice-cold PBS, and lysed by trituration using 1 mL per 5 x 10^7 cells of 0.5% sodium deoxycholate, 12 mM sodium lauryl sarcosine, and 50 mM triethylammonium bicarbonate, pH 8.0. Lysates were heated at 95 °C for 5 min and water bath sonicated at room temperature (RT) for 5 min. Bicinchoninic acid protein assay (Pierce) was performed to determine protein concentration. Disulfide bridges were reduced with 5 mM tris(2-carboxyethyl)phosphine (final concentration) at RT for 30 min with subsequent treatment with 10 mM iodoacetamide (final concentration) at RT in the dark for 30 min. Solutions were diluted 1:5 (v:v) with 50 mM triethylammonium bicarbonate. Proteins were cleaved with sequencing grade trypsin (Promega) at 1:100 (enzyme:protein) for 4 h at 37 °C followed by a second aliquot of trypsin 1:100 (enzyme:protein) overnight at 37 °C. Samples were acidified with 0.5% trifluoroacetic acid (final concentration), vortexed rapidly for 5 min, and centrifuged (16,000 x g for 5 min, RT) to pellet sodium deoxycholate. Supernatants were transferred to new microcentrifuge tubes and 20 µg of total peptide were desalted using C18 StageTips as previously described2. On-column dimethyl labeling using C18 StageTips was performed as previously described3. Briefly, StageTips were equilibrated with 20 μL of 250 mM 2-(N-morpholino)ethanesulfonic acid (MES) pH 5.5. Tryptic peptides were dimethyl labeled using 60 mM sodium cyanoborohydride, 0.4% formaldehyde, and 250 mM MES pH 5.5 for 10 min. Dimethyl labeled peptides were eluted from StageTips using 20 μL of 80% acetonitrile with 0.1% trifluoroacetic acid and lyophilized to dryness. […]

CHEK1 pS345 = assay: Western blot of replication stress marker in CEM cells; type: cell-based, human
Description: Cells were lysed using RIPA buffer supplemented with protease (ThermoFisher, 78,430) and phosphatase (ThermoFisher, 78,420) inhibitors, scraped, sonicated, and centrifuged (20,000 × g at 4 °C). Protein concentrations in the supernatant were determined using the Micro BCA Protein Assay kit (Thermo), and equal amounts of protein were resolved on pre-made Bis-Tris polyacrylamide gels (Life Technologies). Primary antibodies: pS345 CHEK1 (Cell signaling, #2348 L, 1:1000), pT68 CHEK2 (Cell signaling, #2197 S, 1:1000), pS139 H2A.X (Millipore, 05-636, 1:1000), clvd. Casp8 (Cell signaling, #8592, 1:1000), clvd. Casp9 (Cell signaling, #9502, 1:1000), clvd. Casp3 (Cell signaling, #9662, 1:1000), clvd. PARP (Cell signaling, #5625 P, 1:1000), and anti-actin (Cell Signaling Technology, 9470, 1:10,000). Primary antibodies were stored in 5% BSA (Sigma-Aldrich) and 0.1% NaN3 in TBST solution. Anti-rabbit IgG HRP-linked (Cell Signaling Technology, 7074, 1:2500) and anti-mouse IgG HRP-linked (Cell Signaling Technology, 7076, 1:2500) were used as secondary antibodies. Chemiluminescent substrates (ThermoFisher Scientific, 34,077 and 34,095) and autoradiography film (Denville) were used for detection.

p185BCR-ABL Arf–/– cells = assay: Proliferation assay (CellTiter-Glo, 72 h); type: cell-based; conditions: Mus musculus
Description: (§1) Cells were plated in 384-well plates (1000 cells/well for suspension cell lines and 500 cells/well for adherent cell lines in 30 µl volume). Drugs were serially diluted to the desired concentrations and an equivalent volume of DMSO was added to vehicle control. Ten microliter of the 4× diluted drugs were added to each well. Following 72 h incubation, ATP content was measured using CellTiter-Glo reagent according to manufacturer’s instructions (Promega, CellTiter-Glo Luminescent Cell Viability Assay), and analyzed by SpectraMax luminometer (Molecular Devices). IC50 values, concentrations required to inhibit proliferation by 50% compared to DMSO treated cells, were calculated using Prism 6.0 h (Graphpad Software).

ATR = test system: ATR; set-up: method as in earlier work; conditions: ref #35, Fokas et al., 2014; cited from earlier work
CEM cells = assay: Proliferation assay (CellTiter-Glo, 72 h); type: cell-based, human
Description: as §1

[1] = Suppl. Fig. 5e, BCX-1777 100 nM
[2] = 1 µM VE-822, 12 h, analyses #1-#3

COc1ccc(-c2nc([C@@H](C)Sc3nc(N)cc(N)n3)c(C)s2)cc1OCCNS(C)(=O)=O [dCKi]
cells in G2/M (Jurkat cells; Suppl. Fig. 4e, dCF 10 µM): 17%
cells in S phase (Jurkat cells; Suppl. Fig. 4e, dCF 10 µM): 30%
cells in G2/M (Jurkat cells; [1]): 14%
cells in S phase (Jurkat cells; [1]): 32%

CNCc1ccc(-c2cc(-c3nc(-c4ccc(S(=O)(=O)C(C)C)cc4)cnc3N)on2)cc1 [VE-822]
Protein expression level normalized to control (NT): Apoptosis regulatory protein Siva (SIVA1) (asynchronous CEM cells; [2]): 0.5843 and 0.5702 and 0.5605
Protein expression level normalized to control (NT): Aspartate--tRNA ligase, cytoplasmic (DARS) (asynchronous CEM cells; [2]): 0.9056 and 0.9095
Protein expression level normalized to control (NT): Eukaryotic translation initiation factor 2 subunit 3 (EIF2S3;EIF2S3L) (asynchronous CEM cells; [2]): 0.9499 and 0.9479 and 0.9485
Protein expression level normalized to control (NT): GA-binding protein alpha chain (GABPA) (asynchronous CEM cells; [2]): 0.6147 and 0.6159 and 0.6369
observed fold decrease in total RRM2 protein (proteomic nLC-MS/MS) (asynchronous CEM cells; asynchronous CEM, VE-822 1 µM, 12 h): 0.77 fold
CHEK1 pS345 induced by RNR inhibition (CHEK1 pS345; 0.5 h time point): abrogated
CHEK1 pS345 induced by RNR inhibition (CHEK1 pS345; 4 h time point): partially inhibited
CHEK1 pS345 levels (CHEK1 pS345; CEM cells, VE-822 1 µM, 24 h): reduced
IC50 (p185BCR-ABL Arf–/– cells): ~300 nM
cellular selectivity for ATR compared to other members of the PIKK family (including ATM and DNA-PK) (ATR): > 100 fold

NC(=S)N/N=C/c1ncccc1N [3-AP]
IC50 (CEM cells): 1060 nM
